Entries after “also recorded” stand apart in the source; their conditions may differ.
What was measured:
Format in all cases: cell-based
[1] = test system: ID8 ovarian cancer cell line; test: SRB assay, 48 h, cytostasis, ID8; details: for IC50 / ID8 Max. Inh. (%): SRB assay, 48 h; for ID8 Max. Inh. (%): ND = not detected
Method: (§1) The compounds were tested between 0.001694 and 33.3333 µM, using a 4-hour-long MTT test to assess rapid toxicity and a 48-hour-long SRB assay to assess the long-term effects of the inhibition of proliferation (cytostasis). The MTT assay assesses the activity of mitochondrial complex I and detects rapid, direct toxicity, as well as indicating apoptosis and necrosis. The SRB assay measures the total protein content that is proportional to cell numbers; therefore, the assay can detect changes in cell numbers and can thus be used as a readout for cell proliferation. The SRB assay was performed after 48 h of treatment (with the exception of L428 cells, which were tested for 96 h due to their slower proliferation rate). In this setting, the SRB assay informs us of long-term changes to cell proliferation. We assessed the maximal inhibition within that concentration range, and descriptive statistics were performed. We performed a one-way ANOVA, followed by the Kruskal–Wallis test, regardless of the normal or non-normal distribution of the data. Due to the large number of significance values, the results of the significance calculations are provided in an Excel spreadsheet at https://figshare.com/s/28d14597d5041f08eb08 (accessed on 6 January 2022), among other primary data of the study. Where possible, nonlinear regression was performed on the curves to determine the IC50 values ((inhibitor) vs. response—variable slope (four parameters) method with Graphpad v8.0.1). […] In Table 5, we added the IC50 values that we determined for a set of 4 active ruthenium half-sandwich complexes we identified previously, to be used in subsequent structure-activity relationship (SAR) analyses.
ID8 cells were cultured in a high-glucose DMEM (4.5 g/L glucose) medium, supplemented with 4% fetal calf serum, 2 mM glutamine, 1% penicillin-streptomycin, and 1% ITS supplement (I3146).
(§2) The assay was performed similarly to the method used in [73]. Cells were seeded in 96-well plates the day before the assay. Cells were treated with the compounds for 48 h, with the exception of L428, where 96 h of treatment was applied. Cells were fixed with 10% trichloroacetic acid (TCA). Fixed cells were washed in distilled water 3 times, followed by staining with SRB (0.4 m/V% dissolved in 1% acetic acid) for 10 min. The stained cells were washed in 1% acetic acid 5 times; the acetic acid was removed, and the cells were left to dry. Protein-bound SRB was released by adding 100 µL 10 mM Tris base. Plates were measured in a plate photometer (Thermo Scientific Multiscan GO spectrophotometer, Waltham, MA, USA) at 540 nm. On each plate, wells were designed to contain untreated cells. In calculations, the readings for these wells were considered as 1 and all readings were expressed relative to these values.
(§3) Statistical analysis was performed using the 8.0.1 version of Graphpad Prism. Values were tested for normal distribution, using the d’Agostino and Pearson normality test. When necessary, values were log-normalized or were normalized using the Box-Cox normalization method or using a two-step transformation, as indicated in the figure captions. Nonlinear regression was performed using the built-in “[Inhibitor] vs. Response—Variable slope (four parameters), least-square fit” utility of Graphpad, yielding the IC50 and Hill slope values.

A2780 cells [2] = test: SRB assay with or without 1 mM vitamin E co-treatment; details: 48 h SRB
Method: To assess the causative role of oxidative stress in cytostasis induced by the compounds we identified in this study, we co-treated cells with the compounds and with vitamin E, a lipophilic antioxidant.
as §2
Figure 10 Assessment of selected Os(II) and Ir(III) complexes (Os-3‒Os-6, Ir-6) for cytostatic activity. Here, 1.5 × 10^3 A2780 cells were plated onto 96-well plates. Cells were treated with the compounds in the concentrations indicated for 48 h for an SRB assay with or without 1 mM vitamin E. Data are represented as average ± SD, from three biological replicates; individual assays were performed in duplicate. Values were normalized for vehicle-treated cells. Absorbance for vehicle-treated cells is equal to 1. Normality was assessed using the d’Agostino and Pearson test. Os-3, Os-4, Os-6, Ir-6 data had normal distribution, while in Os-5, normality was achieved using the Box-Cox normalization method. Statistical difference was assessed using a two-way ANOVA test; all measurement points were compared with each other. *, ** and *** indicate statistically significant differences between vehicle-treated (control) cells and those treated with a compound but not with vitamin E, at p < 0.05 and p < 0.001, respectively. #, ##, and ### indicate statistically significant differences between vehicle-treated (no Vitamin E) and the cells treated with a Vitamin E at p < 0.05, p < 0.01 and p < 0.001, respectively. !, !!, and !!! indicate statistically significant differences between vitamin E and vehicle-treated cells (control) and the cells treated with vitamin E and a compound at p < 0.05, p < 0.01 and p < 0.001, respectively.

[3] = test system: A2780 ovarian cancer cells; test: SRB assay, 48 h, cytostasis, A2780; details: for cytostatic activity on A2780 cells in SRB assay (in words): 48 h treatment; for IC50 / A2780 Max. Inh. (%): SRB assay, 48 h; for A2780 Max. Inh. (%): ND = not detected
Method: as §1
A2780 cells were cultured in RMPI 1640 medium, supplemented with 10% fetal calf serum, 2 mM glutamine, and 1% penicillin-streptomycin.
as §2, §3

A2780 cells [4] = test: Annexin V-propidium iodide double staining, cell death, flow cytometry; details: 2 h treatment; Os-3 2.68 µM, Os-4 3.25 µM, Os-5 2.84 µM, Os-6 0.70 µM, Ir-6 1.63 µM
Method: We selected the Os-3, Os-4, Os-5, Os-6 and Ir-6 complexes for further study, based on their strong cytostatic activity on the ovarian cancer cell lines, but there was a lack of activity on primary fibroblasts. […] Similar to previous approaches, as propidium iodide or Annexin V positivity is an early feature of cell death, we treated cells for 2 h and then performed double-staining with Annexin V—propidium iodide.
The proportion of dead cells was assessed using the Annexin V–propidium iodide assay and was measured using flow cytometry with a BD FacsCalibur (BD Biosciences, Franklin Lakes, NJ, USA) instrument and the FITC Annexin V/Dead Cell Apoptosis kit (Life Technologies, Eugene, OR, USA), according to the manufacturer’s instructions, in a process similar to that in [43]. Quadrants were set, based on the FITC and PI values observed for the vehicle-treated cells.
Here, 1 × 10^6 A2780 cells were plated in 6-well plates and were treated with the corresponding complexes (Os-3 at 2.68 µM, Os-4 at 3.25 µM, Os-5 at 2.84 µM, Os-6 at 0.70 µM, Ir-6 at 1.63 µM,) and 300 µM hydrogen peroxide for 2 h. Cells were then stained with Annexin V and propidium iodide (PI), then, cells were subjected to flow cytometry as described in the Materials and Methods section. The percentage of cells in the quadrants was plotted. Data are represented as average ± SD, from three biological replicates; individual assays were performed in duplicate. Normality was tested, on all datasets. A two-step transformation was used to achieve normal distribution. Statistical significance was determined using a two-way ANOVA test; all measurement points were compared with each other. ** and *** indicate statistically significant differences between vehicle-treated (control) and treated cells ([…] or 300 µM H2O2) corresponding to the same quadrant (e.g., vehicle-treated double-negative cells vs. Os-3-treated double-negative cells) at p < 0.01 and p < 0.001, respectively.

| SMILES | cytostatic activity on ID8 cells, SRB assay (in words) ([1]; 48 h treatment) | IC50 [1] [nM] | ID8 Max. Inh. (%) [1] [%] | effect of vitamin E on the cytostatic properties of the complex (A2780 cells [2]) | cytostatic activity on A2780 cells in SRB assay (in words) [3] | IC50 [3] [nM] | A2780 Max. Inh. (%) [3] [%] | induction of cell death (Annexin V / propidium iodide positivity) (A2780 cells [4]) |
| --- | --- | --- | --- | --- | --- | --- | --- | --- |
| Cc1c(C)c(C)[c-](C)c1C.F[P-](F)(F)(F)(F)F.O=C(OCC1OC(n2cc(-c3ccccn3)nn2)C(OC(=O)c2ccccc2)C(OC(=O)c2ccccc2)C1OC(=O)c1ccccc1)c1ccccc1.[Cl][Ir+2] (mixture of isomers) [Ir-6] | pronounced cytostatic activity | 980 | 100 | potently inhibited by vitamin E | pronounced; also recorded: displayed cytostatic activity | 1640 | 100 | None of the complexes induced cell death |
| Cc1ccc(C(C)C)cc1.F[P-](F)(F)(F)(F)F.O=C(OCC1OC(c2nnc(-c3ccccn3)o2)C(OC(=O)c2ccccc2)C(OC(=O)c2ccccc2)C1OC(=O)c1ccccc1)c1ccccc1.[Cl][Os+] (mixture of isomers) [Os-3] | – | 5940 | 100 | potently inhibited by vitamin E | exerted cytostatic activity | 2520 | 100 | None of the complexes induced cell death |
| Cc1ccc(C(C)C)cc1.F[P-](F)(F)(F)(F)F.O=C(OCC1OC(c2nnc(-c3ccccn3)o2)C(OC(=O)c2ccccc2)C(OC(=O)c2ccccc2)C1OC(=O)c1ccccc1)c1ccccc1.[Cl][Os+] (mixture of isomers) [Os-4] | – | 6950 | 100 | potently inhibited by vitamin E | exerted cytostatic activity | 3230 | 100 | None of the complexes induced cell death |
| Cc1ccc(C(C)C)cc1.F[P-](F)(F)(F)(F)F.O=C(OC1COC(c2nnc(-c3ccccn3)o2)C(OC(=O)c2ccccc2)C1OC(=O)c1ccccc1)c1ccccc1.[Cl][Os+] (mixture of isomers) [Os-5] | – | 1960 | 100 | potently inhibited by vitamin E | exerted cytostatic activity | 2810 | 100 | None of the complexes induced cell death |
| Cc1ccc(C(C)C)cc1.F[P-](F)(F)(F)(F)F.O=C(OCC1OC(n2cc(-c3ccccn3)nn2)C(OC(=O)c2ccccc2)C(OC(=O)c2ccccc2)C1OC(=O)c1ccccc1)c1ccccc1.[Cl][Os+] (mixture of isomers) [Os-6] | – | 1960 | 100 | potently inhibited by vitamin E | exerted cytostatic activity | 700 | 100 | None of the complexes induced cell death |

— PMC8776094, “Reactive Oxygen Species Production Is Responsible for Antineoplastic Activity of Osmium, Ruthenium, Iridium and Rhodium Half-Sandwich Type Complexes with Bidentate Glycosyl Heterocyclic Ligands in Various Cancer Cell Models” (International Journal of Molecular Sciences, 2022)
